One assay concerns the target T1, Recombinant STAT3 protein (STAT3(G127-I722)) (Homo sapiens, UniProt P40763).
T1 construct: Recombinant STAT3 protein (STAT3(G127-I722))
Put plainly: STAT3 Fluorescence Polarization (FP) Assay. It is filed as binding. The following applies: STAT3(G127-I722) 25 nM, probe 5-FAM-GpYLPQTV-NH2 2 nM, 45-minute incubation. The procedure, abridged:
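Fluorescence polarization after a 45-min room-temperature incubation measured compound displacement of a 2 nM fluorescein-labelled phosphotyrosine peptide (5-FAM-GpYLPQTV-NH2) from 25 nM recombinant STAT3(G127-I722). Buffer was 10 mM HEPES pH 7.4 with 1% DMSO final. IC50s were fitted by nonlinear regression of mP against log concentration.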
(In general: In fluorescence polarisation assays a small probe gives low polarisation when free and higher when bound to something large.)
T1 sequence (P40763 127-722): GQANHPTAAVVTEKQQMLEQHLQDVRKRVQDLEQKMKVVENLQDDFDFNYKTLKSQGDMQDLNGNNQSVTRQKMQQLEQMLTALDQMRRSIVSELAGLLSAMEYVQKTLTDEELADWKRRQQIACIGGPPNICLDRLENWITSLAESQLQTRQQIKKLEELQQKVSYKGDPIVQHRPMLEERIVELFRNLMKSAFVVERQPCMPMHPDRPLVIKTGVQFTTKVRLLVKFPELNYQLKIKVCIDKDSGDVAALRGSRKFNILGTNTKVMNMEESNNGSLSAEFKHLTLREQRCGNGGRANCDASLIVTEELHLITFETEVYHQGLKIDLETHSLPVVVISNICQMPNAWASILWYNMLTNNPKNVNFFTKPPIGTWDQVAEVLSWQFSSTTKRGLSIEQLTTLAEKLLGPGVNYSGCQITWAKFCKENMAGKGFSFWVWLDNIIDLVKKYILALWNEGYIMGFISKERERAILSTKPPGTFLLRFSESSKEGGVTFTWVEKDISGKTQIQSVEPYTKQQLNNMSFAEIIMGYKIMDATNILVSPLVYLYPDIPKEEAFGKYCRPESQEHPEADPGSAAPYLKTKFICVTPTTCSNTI
Usually IC50 stands for the point on the concentration scale where inhibition reaches its midpoint. In the case of “((2-(((5S,8S,10aR)-3-acetyl-8-((rel-trans)-3-cyano-3-methyl-4-phenylpyrrolidine-1-carbonyl)-6-oxodecahydropyrrolo[1,2-a][1,5]diazocin-5-yl)carbamoyl)benzo[b]thiophen-5-yl)difluoromethyl)phosphonic acid [Compound 41]”, the IC50 lay in the range of 1000 to 10000 nM.
For the compound “((2-(((5S,8S,10aR)-8-((3S,4R or 3R,4S)-3-cyano-4-phenylpyrrolidine-1-carbonyl)-3-(2,2-difluoroethyl)-6-oxodecahydropyrrolo[1,2-a][1,5]diazocin-5-yl)carbamoyl)benzo[b]thiophen-5-yl)difluoromethyl)phosphonic acid [Compound 249]”, the 50% inhibitory concentration (IC50) fell in the range of 100 to 1000 nM.

In the next assay the target is T2, Recombinant STAT6 protein (STAT6(W123-T658)) (Homo sapiens, UniProt P42226).
T2 construct: Recombinant STAT6 protein (STAT6(W123-T658))
T2 sequence (P42226 123-658): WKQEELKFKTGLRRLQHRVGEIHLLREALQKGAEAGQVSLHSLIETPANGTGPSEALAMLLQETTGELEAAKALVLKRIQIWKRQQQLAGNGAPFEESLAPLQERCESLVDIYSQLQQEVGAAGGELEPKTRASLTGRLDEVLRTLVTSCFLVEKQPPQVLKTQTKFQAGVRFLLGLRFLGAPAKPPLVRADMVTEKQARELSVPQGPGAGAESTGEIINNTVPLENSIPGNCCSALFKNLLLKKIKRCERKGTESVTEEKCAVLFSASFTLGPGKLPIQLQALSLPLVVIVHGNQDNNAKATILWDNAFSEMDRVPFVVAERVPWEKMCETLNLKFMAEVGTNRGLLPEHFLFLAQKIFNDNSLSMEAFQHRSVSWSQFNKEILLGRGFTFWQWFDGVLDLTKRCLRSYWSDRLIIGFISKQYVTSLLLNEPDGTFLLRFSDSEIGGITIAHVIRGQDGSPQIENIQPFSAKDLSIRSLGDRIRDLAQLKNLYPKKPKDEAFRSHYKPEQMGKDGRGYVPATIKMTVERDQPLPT
Put plainly: STAT6 Fluorescence Polarization (FP) Assay. It is filed as binding. The following applies: STAT6(W123-T658) 250 nM, probe 5-FAM-ApYKPFQDLI-NH2 2 nM, 45-minute incubation. An outline of the steps: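 Displacement of a fluorescent phosphotyrosine peptide (5-FAM-ApYKPFQDLI-NH2, 2 nM) from STAT6(W123-T658) (250 nM), 1% DMSO, pH 7.4 HEPES buffer. After 45 min at room temperature, polarization (mP) was plotted versus log compound concentration and fitted by nonlinear regression to give IC50.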
Turning to “((2-(((5S,8S,10aR)-3-acetyl-8-((rel-trans)-3-cyano-3-methyl-4-phenylpyrrolidine-1-carbonyl)-6-oxodecahydropyrrolo[1,2-a][1,5]diazocin-5-yl)carbamoyl)benzo[b]thiophen-5-yl)difluoromethyl)phosphonic acid [Compound 41]”, the IC50 was at most 300 nM.
On the same count and under the same terms, as for “((2-(((5S,8S,10aR)-8-((3S,4R or 3R,4S)-3-cyano-4-phenylpyrrolidine-1-carbonyl)-3-(2,2-difluoroethyl)-6-oxodecahydropyrrolo[1,2-a][1,5]diazocin-5-yl)carbamoyl)benzo[b]thiophen-5-yl)difluoromethyl)phosphonic acid [Compound 249]”, the figure is at most 300 nM.

A further assay deals with pY641-STAT6 in Peripheral Blood Mononuclear Cells (PBMC). The experiment in a line: MSD-pSTAT-PBMC Assay (pSTAT6, IL-4 stimulated). Format: cell-based, Human. The following applies: Homo sapiens, compound 3 hrs, then 1 ng/mL IL-4 for 10 min. An excerpt: Cryopreserved Peripheral Blood Mononuclear Cells (PBMC) are from AllCells. Recombinant Human IL-4 and IL-6 are from Peprotech. Mouse monoclonal anti-STAT3 antibody, rabbit monoclonal anti-pY705-STAT3 antibody, rabbit monoclonal Anti-pY641-STAT6 antibody, and lysis buffer are from Cell Signaling Technology (CST). Mouse monoclonal anti-STAT6 antibody is from BioLegend. Assay plates, blocker, and anti-rabbit secondary antibody are from Meso Scale Discovery (MSD).
Cryopreserved PBMCs were thawed out and allowed to recover overnight in IMDM+10% heat-inactivated FBS prior to plating 50,000 (STAT3) or 25,000 (STAT6) cells per well in 96-well U-bottom tissue culture plates. Cells were treated with compound for 3 hrs, then stimulated with 10 ng/mL IL-6 (STAT3) or 1 ng/mL IL-4 (STAT6) for 10 min. Cells were then spun down and washed with ice-cold PBS prior to lysing the cell pellet with 1× lysis buffer (CST) with 1×HALT protease and phosphatase inhibitor cocktail (Thermo). Lysates were transferred to and incubated overnight at 4° C. with shaking in QuickPlex 96-well high bind assay plates (MSD) pre-coated overnight with 30 μL per well of 0.6 μg/mL mouse monoclonal anti-STAT3 antibody (STAT3) or 2 μg/mL mouse monoclonal anti-STAT6 antibody (STAT6) in 1×PBS, and pre-blocked for 1 hour with 3% Blocker-A (MSD). Captured protein in the assay plates were then washed and probed with 25 μL per well of 0.25 μg/ml rabbit monoclonal anti-pY705-STAT3 antibody (STAT3) or […] rabbit monoclonal Anti-pY641-STAT6 antibody (STAT6) in 1% Blocker-A for 1 hour at room temperature with shaking, then washed and probed with 25 ul per well of 1 ug/ml Sulfo-TAG Labeled Goat Anti-Rabbit Antibody (MSD) in 1% Blocker-A for 1 hour at room temperature with shaking. Assay plates were then washed and 150 μL of 1× Read Buffer-T (MSD) was added to each well prior to reading on an SQ120 MSD Plate Reader. Assay signal from each sample was subtracted by the signal from unstimulated control wells and normalized to DMSO control wells. IC50 values were calculated using Graph Pad Prism Dose-Response Nonlinear Regression with variable slope. For both pSTAT3 and pSTAT6 A=≤100 nM; B=>100-1000 nM; C=>1000-3000 nM; and D=>3 μM.
`CC(=O)N1CC[C@H]2CC[C@@H](C(=O)N3C[C@H](c4cc[nH]c(=O)c4)[C@@H](C#N)C3)N2C(=O)[C@@H](NC(=O)c2ccc3ccc(C(F)(F)P(=O)(OCCSC(=O)CC(C)C)OCOC(=O)OC(C)C)cc3c2)C1` (single isomer, unassigned) [Compound 302, S-(2-((((7-(((5S,8S, 10aR)-3-acetyl-8-((3R,4S or 3S,4R)-3-cyano-4-(2-oxo-1,2-dihydro-pyridin-4-yl)pyrrolidine-1-carbonyl)-6-oxodecahydro-pyrrolo[1,2-a][1,5]diazocin-5-yl)carbamoyl)naphthalen-2-yl)difluoro-methyl)(((iso-propoxy-carbonyl)oxy)methoxy)phos-phoryl)oxy)ethyl)3-methylbutane-thioate] displayed an IC50 of 100 to 1000 nM.
As for `Cc1ccc2onc(C(=O)N3CC[C@H]4CC[C@@H](C(=O)N5C[C@@H](C#N)[C@H](c6ccccc6)C5)N4C(=O)[C@@H](NC(=O)c4ccc5ccc(C(F)(F)P(=O)(OCCSC(=O)CC(C)C)OCCSC(=O)CC(C)C)cc5c4)C3)c2c1` (single isomer, unassigned) [Compound 433], the concentration for half-maximal inhibition (IC50) was at most 100 nM.
For `CCCOC(=O)[C@H](C)NP(=O)(Oc1ccccc1)C(F)c1ccc2ccc(C(=O)N[C@H]3CN(C(C)=O)CC[C@H]4CC[C@@H](C(=O)N5CC(c6ccn(C)c(=O)c6)CC56CC6)N4C3=O)cc2c1` (stereo partly drawn) [Compound 406, propyl (((7-(((5S,8S,10aR)-3-acetyl-8-(6-(1-methyl-2-oxo-1,2-dihydro-pyridin-4-yl)-4-azaspiro[2.4]heptane-4-carbonyl)-6-oxodeca-hydropyrrolo [1,2-a] [1,5]diazocin-5-yl)carbamoyl)naphthalen-2-yl)fluoromethyl) (phenoxy)phosphoryl)-L-alaninate], the IC50 fell in the range of 100 to 1000 nM.
`CCCOC(=O)[C@H](C)NP(=O)(Oc1ccccc1)C(F)c1ccc2ccc(C(=O)N[C@H]3CN(C(=O)c4cc(Cl)c5nc(C)ccc5c4)CC[C@H]4CC[C@@H](C(=O)N5CCOCC5)N4C3=O)cc2c1` (stereo partly drawn) [Compound 407, propyl (((7-(((5S,8S,10aR)-3-(8-chloro-2-methylquinoline-6-carbonyl)-8-(morpholine-4-carbonyl)-6-oxodeca-hydropyrrolo [1,2-a][1,5]diazocin-5-yl)carbamoyl)naphthalen-2-yl)fluoromethyl) (phenoxy)phosphoryl)-L-alaninate] yielded an IC50 of 1000 to 3000 nM.
As to `CCCOC(=O)[C@H](C)NP(=O)(Cc1ccc2ccc(C(=O)N[C@H]3CN(C(C)=O)CC[C@H]4CC[C@@H](C(=O)N5CC(c6ccn(C)c(=O)c6)CC56CC6)N4C3=O)cc2c1)Oc1ccccc1` (stereo partly drawn) [Compound 408, propyl (((7-(((5S,8S,10aR)-3-acetyl-8-(6-(1-methyl-2-oxo-1,2-dihydropyridin-4-yl)-4-azaspiro [2.4]heptane-4-carbonyl)-6-oxodeca-hydropyrrolo [1,2-a] [1,5]diazocin-5-yl)carbamoyl)naphthalen-2-yl)methyl) (phenoxy)phosphoryl)-L-alaninate], the IC50 lay within 1000 to 3000 nM.
Same read-out and setting: as for `CCCOC(=O)[C@H](C)NP(=O)(Oc1ccccc1)C(F)c1ccc2ccc(C(=O)N[C@H]3CN(C(C)=O)CC[C@H]4CC[C@@H](C(=O)N5CCC(c6cccnc6)C5)N4C3=O)cc2c1` (stereo partly drawn) [Compound 409, propyl (((7-(((5S,8S,10aR)-3-acetyl-6-oxo-8-(3-(pyridin-3-yl)pyrrolidine-1-carbonyl)decahydropyrrolo [1,2-a] [1,5]diazocin-5-yl)carbamoyl)naphthalen-2-yl)fluoromethyl) (phenoxy)phosphoryl)-L-alaninate], the figure is 1000 to 3000 nM; as for `CCCOC(=O)[C@H](C)NP(=O)(Oc1ccccc1)C(F)c1ccc2ccc(C(=O)N[C@H]3CN(C(=O)c4noc5ccc(C)cc45)CC[C@H]4CC[C@@H](C(=O)N5CCN(S(C)(=O)=O)CC5)N4C3=O)cc2c1` (stereo partly drawn) [Compound 410, propyl ((fluoro(7-(((5S,8S,10aR)-3-(5-methylbenzo [d]isoxazole-3-carbonyl)-8-(4-(methylsulfonyl)piperazine-1-carbonyl)-6-oxodeca-hydropyrrolo [1,2-a][1,5]diazocin-5-yl)carbamoyl)naphthalen-2-yl)methyl) (phenoxy)phosphoryl)-L-alaninate], 100 to 1000 nM.
With `CCCOC(=O)[C@H](C)NP(=O)(Oc1ccccc1)C(F)c1ccc2ccc(C(=O)N[C@H]3CN(C(=O)c4noc5ccc(C)cc45)CC[C@H]4CC[C@@H](C(=O)N5CCN(c6nsc7ccccc67)CC5)N4C3=O)cc2c1` (stereo partly drawn) [Compound 411, propyl (((7-(((5S,8S,10aR)-8-(4-(benzo[d]isothiazol-3-yl)piperazine-1-carbonyl)-3-(5-methylbenzo [d]isoxazole-3-carbonyl)-6-oxodeca-hydropyrrolo [1,2-a][1,5]diazocin-5-yl)carbamoyl)naphthalen-2-yl)fluoromethyl) (phenoxy)phosphoryl)-L-alaninate], the 50% inhibitory concentration (IC50) was over 3000 nM.
Still for that read-out and setting: next, `CCCOC(=O)[C@H](C)NP(=O)(Oc1ccccc1)C(F)c1ccc2ccc(C(=O)N[C@H]3CN(C(=O)c4noc5ccc(C)cc45)CC[C@H]4CC[C@@H](C(=O)N5CCOC[C@@H]5c5ccccc5)N4C3=O)cc2c1` (stereo partly drawn) [Compound 412, propyl ((fluoro(7-(((5S,8S,10aR)-3-(5-methylbenzo [d]isoxazole-3-carbonyl)-6-oxo-8-((S)-3-phenyl-morpholine-4-carbonyl)decahydro-pyrrolo [1,2-a][1,5]diazocin-5-yl)carbamoyl)naphthalen-2-yl)methyl) (phenoxy)phosphoryl)-L-alaninate]: 100 to 1000 nM; `CCCOC(=O)[C@H](C)NP(=O)(Oc1ccccc1)C(F)c1ccc2ccc(C(=O)N[C@H]3CN(C(=O)c4noc5ccc(C)cc45)CC[C@H]4CC[C@@H](C(=O)N5CCOC[C@H]5c5ccccc5)N4C3=O)cc2c1` (stereo partly drawn) [Compound 413, propyl ((fluoro(7-(((5S,8S,10aR)-3-(5-methylbenzo [d]isoxazole-3-carbonyl)-6-oxo-8-((R)-3-phenyl-morpholine-4-carbonyl)decahydro-pyrrolo [1,2-a][1,5]diazocin-5-yl)carbamoyl)naphthalen-2-yl)methyl) (phenoxy)phosphoryl)-L-alaninate]: at most 100 nM.

The values above are taken from US20250179103A1, “6-OXODECAHYDROPYRROLO[1,2-A][1,5]DIAZOCINE AND 6-OXODECAHYDRO-4H-PYRROLO[2,1-D][1,5]THIAZOCINE DERIVATIVES AS STAT3 AND STAT6 MODULATORS FOR THE TREATMENT OF CANCER AND INFLAMMATORY CONDITIONS” (Recludix Pharma, Inc., priority 2022, published 2025).
